From patent US5084453A, “1-carboxy-1-vinyloxyimino aminothiazole cephalosporin derivatives” (priority 1988, dated 1992)

Key:
K. pneumoniae PC1-602 = experiment: in vitro antibacterial activity, agar plate dilution method; type: cell-based; conditions: Klebsiella pneumoniae, PC1602; 10^6 CFU/ml; Mueller Hinton agar, 37° C., 16 hours; read-out: MIC
How it was run: (§1)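 Overnight Mueller Hinton broth cultures were loop-inoculated onto Mueller Hinton agar containing serial antibiotic concentrations. After 16 h at 37 °C, the MIC (μg/ml) was read.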

E. coli CSH(RE45)* = experiment: as above; type: cell-based; conditions: Escherichia coli; 10^6 CFU/ml; β-Lactamase-producing strain; 37° C., 16 hours; read-out: MIC
How it was run: as §1

K. pneumoniae No. 42* = experiment: as above; type: cell-based; conditions: Klebsiella pneumoniae, 16 h
How it was run: as §1

S. marcescens IAM 1184 = experiment: as above; type: cell-based; conditions: Serratia marcescens, IAM1184, 16 h
How it was run: as §1

A. calcoaceticus No. 4 = experiment: as above; type: cell-based; conditions: Acinetobacter calcoaceticus, NO.4, 16 h
How it was run: as §1

E. cloacae 963 = experiment: as above; type: cell-based; conditions: Enterobacter cloacae, 963, 16 h
How it was run: as §1

E. cloacae Nek 39* = experiment: as above; type: cell-based; conditions: Enterobacter cloacae, 16 h
How it was run: as §1

M. morganii GN5407* = experiment: as above; type: cell-based; conditions: Morganella morganii, GN5407, 16 h
How it was run: as §1

S. aureus 209P NIHJ-JC1 = experiment: as above; type: cell-based; conditions: Staphylococcus aureus; 10^6 CFU/ml; Mueller Hinton agar, 37° C., 16 hours; read-out: MIC
How it was run: as §1

E. coli NIHJ JC2 = experiment: as above; type: cell-based; conditions: Escherichia coli, NIHJJC2; 10^6 CFU/ml; Mueller Hinton agar, 37° C., 16 hours; read-out: MIC
How it was run: as §1

E. coli CSH2(RK1)* = experiment: as above; type: cell-based; conditions: Escherichia coli, 16 h
How it was run: as §1

Ps. aeruginosa IFO3445 = experiment: as above; type: cell-based; conditions: Pseudomonas aeruginosa, IFO3445, 16 h
How it was run: as §1

Ps. cepacia 23 = experiment: as above; type: cell-based; conditions: Burkholderia cepacia, 23; 10^6 CFU/ml; Mueller Hinton agar, 37° C., 16 hours; read-out: MIC
How it was run: as §1

K. oxytoca GN10650* = experiment: as above; type: cell-based; conditions: Klebsiella oxytoca, GN10650, 16 h
How it was run: as §1

E. coli GN5482* = experiment: as above; type: cell-based; conditions: Escherichia coli, GN5482, 16 h
How it was run: as §1

Ps. aeruginosa AK 109 = experiment: as above; type: cell-based; conditions: Pseudomonas aeruginosa, AK109; 10^6 CFU/ml; Mueller Hinton agar, 37° C., 16 hours; read-out: MIC
How it was run: as §1

S. marcescens No. 16-2* = experiment: as above; type: cell-based; conditions: Serratia marcescens; 10^6 CFU/ml; β-Lactamase-producing strain; 37° C., 16 hours; read-out: MIC
How it was run: as §1

P. vulgaris HX-19 = experiment: as above; type: cell-based; conditions: Proteus vulgaris, HX19, 16 h
How it was run: as §1

P. vulgaris No. 33* = experiment: as above; type: cell-based; conditions: Proteus vulgaris; 10^6 CFU/ml; β-Lactamase-producing strain; 37° C., 16 hours; read-out: MIC
How it was run: as §1

Ps. aeruginosa AKR17 = experiment: as above; type: cell-based; conditions: Pseudomonas aeruginosa, AKR17, 16 h
How it was run: as §1

[1] = concentration in blood after subcutaneous administration to mice (paper disk method, Morganella morganii IFO 3843); type: in vivo, mice (ddY, male); conditions: mouse, sc, 20 mg/kg subcutaneous
Experimental: As a representative example, the compound of Example 15 was administered to mice by means of subcutaneous administration, and the concentration in the blood was measured. […] The test compound was dissolved in a physiological sodium chloride solution to obtain a formulation having a concentration of 2 mg/ml. […] Now, Ceftazidime was used as a comparative compound. Further, the antibacterial activities of the sample diluted by plasma to have an appropriate concentration were measured by the paper disk method using Morganella morganii IFO 3843 as the test bacterium.

Question: For `C=C(O/N=C(\C(=O)N[C@@H]1C(=O)N2C(C(=O)O)=C(CSc3nc(C(=O)O)c(-c4ccc(O)c(O)c4)s3)CS[C@H]12)c1csc(N)n1)C(=O)O` [Example 15, trisodium 78-[2-(2-aminothiazol-4-yl)-2-(1-carboxylato-1-vinyloxyimino)acetamido]-3-[4-carboxylato-5-(3,4-dihydroxyphenyl)thiazol-2-yl]thiomethyl-3-cephem-4-carboxylate (syn-isomer)], which MIC (K. pneumoniae PC1-602) is on record?
Answer: Its MIC is less than 0.006 µg/mL.

Question: What about the MIC (E. coli CSH(RE45)*) of the same compound?
Answer: Its MIC is 0.05 µg/mL.

Question: What about the MIC (K. pneumoniae No. 42*) of the same compound?
Answer: Its MIC is 0.1 µg/mL.

Question: And the MIC (S. marcescens IAM 1184)?
Answer: The MIC was 0.05 µg/mL.

Question: And the MIC (A. calcoaceticus No. 4)?
Answer: Its MIC is 0.39 µg/mL.

Question: What about the MIC (E. cloacae 963) of the same compound?
Answer: The MIC was 0.05 µg/mL.

Question: What about the MIC (E. cloacae Nek 39*) of the same compound?
Answer: The MIC was 0.05 µg/mL.

Question: And the MIC (M. morganii GN5407*)?
Answer: The MIC was 0.025 µg/mL.

Question: What about the MIC (S. aureus 209P NIHJ-JC1) of the same compound?
Answer: Its MIC is 25 µg/mL.

Question: What about the MIC (E. coli NIHJ JC2) of the same compound?
Answer: The MIC was 0.39 µg/mL.

Question: What about the MIC (E. coli CSH2(RK1)*) of the same compound?
Answer: Its MIC is 0.0125 µg/mL.

Question: What about the MIC (Ps. aeruginosa IFO3445) of the same compound?
Answer: The MIC was 1.56 µg/mL.

Question: And the MIC (Ps. cepacia 23)?
Answer: Its MIC is less than 0.006 µg/mL.

Question: And the MIC (K. oxytoca GN10650*)?
Answer: The MIC was 0.1 µg/mL.

Question: And the MIC (E. coli GN5482*)?
Answer: Its MIC is 0.39 µg/mL.

Question: What about the MIC (Ps. aeruginosa AK 109) of the same compound?
Answer: Its MIC is 0.78 µg/mL.

Question: What about the MIC (S. marcescens No. 16-2*) of the same compound?
Answer: The MIC was 0.78 µg/mL.

Question: And the MIC (P. vulgaris HX-19)?
Answer: The MIC was 0.0125 µg/mL.

Question: And the MIC (P. vulgaris No. 33*)?
Answer: The MIC was less than 0.006 µg/mL.

Question: What about the MIC (Ps. aeruginosa AKR17) of the same compound?
Answer: The MIC was 1.56 µg/mL.

Question: What about the concentration at 0.125 h ([1]; 7.5 min) of the same compound?
Answer: Its concentration at 0.125 h is 33800 ng/mL.

Question: What about the concentration at 0.25 h ([1]; 15 min) of the same compound?
Answer: Its concentration at 0.25 h is 45000 ng/mL.

Question: And the concentration at 0.5 h ([1]; 30 min)?
Answer: Its concentration at 0.5 h is 44300 ng/mL.

Question: And the concentration at 1 h ([1]; 60 min)?
Answer: Its concentration at 1 h is 21900 ng/mL.

Question: And the concentration at 2 h ([1]; 120 min)?
Answer: The concentration at 2 h was 7100 ng/mL.

Question: What about the concentration at 4 h ([1]; 240 min) of the same compound?
Answer: The concentration at 4 h was 7200 ng/mL.
